Data on 12 compounds can be found in PubChem BioAssay (NCI).

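Assay format: 96-well plates, 48-hour exposure. GI50: concentration for 50% inhibition of growth. TGI is the concentration that stops growth completely.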

Among the test systems are HCC-2998 colon; COLO 205 colon; 786-0 renal; T-47D breast; SF-268 CNS; A549 NSCLC; NCI/ADR-RES ovarian; EKVX NSCLC; NCI-H23 lung; PC-3 prostate; HOP-62 NSCLC; HOP-92 NSCLC; BT-549 breast.
Common to all, as to assay: NCI-60 cell line screen, 48 h

As to `CN1CCN(C2=NCCO2)CC1`, the TGI with HCC-2998 colon, in the test with COLO 205 colon, in the test with 786-0 renal, with T-47D breast, in the test with SF-268 CNS and in the test with A549 NSCLC was over 100 µM throughout. The TGI with NCI/ADR-RES ovarian, in the test on EKVX NSCLC, with NCI-H23 lung, with PC-3 prostate and in the test on HOP-62 NSCLC was over 100 µM throughout.
Regarding `CCOC(=O)c1csc(NC(=O)CN2CCOCC2)n1`, the TGI with HCC-2998 colon, in the test with COLO 205 colon, with HOP-92 NSCLC, in the test with T-47D breast, in the test on SF-268 CNS and with A549 NSCLC was over 100 µM each time. For the same compound, the TGI with NCI/ADR-RES ovarian, with EKVX NSCLC, with NCI-H23 lung, with PC-3 prostate and in the test on HOP-62 NSCLC was over 100 µM throughout.
As to `CC(C)(C)OC(=O)N[C@H]1CCN(C2CCCCC2)C1=O`, the TGI with HCC-2998 colon, in the test on COLO 205 colon, in the test on HOP-92 NSCLC, in the test with 786-0 renal, with SF-268 CNS and in the test with A549 NSCLC was over 100 µM in each case. The TGI with NCI/ADR-RES ovarian, in the test on EKVX NSCLC, in the test on NCI-H23 lung, in the test on PC-3 prostate and with HOP-62 NSCLC was over 100 µM throughout.
With `O=C(NC(=O)c1ccccc1[N+](=O)[O-])Nc1ccc(Oc2ncc(Br)cn2)c(Cl)c1`, the GI50 in the test with HCC-2998 colon was 0.0497 µM; in the test on COLO 205 colon, under 0.0188 µM; with A549 NSCLC, under 0.0248 µM; in the test on EKVX NSCLC, 0.868 µM; in the test with NCI-H23 lung, under 0.0209 µM; in the test with HOP-62 NSCLC it was 0.0454 µM. Also, the TGI in the test with HCC-2998 colon is 32.9 µM; in the test on COLO 205 colon, 2.22 µM; in the test with A549 NSCLC, over 100 µM; with NCI/ADR-RES ovarian it was 0.0589 µM.
As to `COC(=O)c1c(C)cccc1C1CN=NC12Cc1ccc(C)cc1C2=O` (configuration not stated), the TGI is over 100 µM with HCC-2998 colon; over 100 µM with HOP-92 NSCLC; over 100 µM in the test with 786-0 renal; 49.8 µM in the test with T-47D breast; over 100 µM with SF-268 CNS; over 100 µM in the test on A549 NSCLC. In addition, the TGI in the test with NCI/ADR-RES ovarian, in the test on EKVX NSCLC, in the test on NCI-H23 lung, with PC-3 prostate and with HOP-62 NSCLC was over 100 µM in each case.
For `c1ccc(N=c2sc3ccccc3nc2Nc2ccccc2)cc1`, the TGI with HCC-2998 colon, in the test on COLO 205 colon, in the test with HOP-92 NSCLC, in the test with 786-0 renal, in the test on T-47D breast and in the test on SF-268 CNS was over 100 µM throughout. The TGI in the test on A549 NSCLC, with NCI/ADR-RES ovarian, in the test with EKVX NSCLC, in the test with NCI-H23 lung, with PC-3 prostate and in the test on HOP-62 NSCLC was over 100 µM throughout.
Consider `CCC(C(=O)O)c1ccc(OC)cc1` (configuration not stated), for which the TGI with HCC-2998 colon, in the test on COLO 205 colon, in the test on HOP-92 NSCLC, in the test with SF-268 CNS, in the test on A549 NSCLC and in the test with EKVX NSCLC was over 100 µM in each case. For the same compound, the TGI in the test with NCI-H23 lung and in the test on HOP-62 NSCLC was over 100 µM throughout.
On to `ClCCN1CCC2(CC1)SSC1(CCN(CCCl)CC1)S2`, for which the TGI in the test with COLO 205 colon was 41.2 µM; in the test with HOP-92 NSCLC, 29.2 µM; in the test on 786-0 renal, over 100 µM; with SF-268 CNS, 30.9 µM; in the test with BT-549 breast, over 100 µM; with A549 NSCLC, over 100 µM. Besides, the TGI in the test on NCI/ADR-RES ovarian, with NCI-H23 lung, in the test with PC-3 prostate and in the test on HOP-62 NSCLC was over 100 µM throughout.
`COC(CCC[N+](C)(C)C)CC[N+](C)(C)C` (configuration not stated): the TGI in the test on HCC-2998 colon, in the test with COLO 205 colon, in the test on 786-0 renal, in the test with SF-268 CNS, in the test with BT-549 breast and with A549 NSCLC was over 100 µM in each case. The TGI in the test with NCI/ADR-RES ovarian, in the test with EKVX NSCLC, in the test with NCI-H23 lung, in the test with PC-3 prostate and in the test with HOP-62 NSCLC was over 100 µM throughout.
Regarding `C=C1C(=O)O[C@@H]2C(=O)[C@@H](C)CCC/C(C)=C/CC[C@@]3(C)O[C@@H]3C[C@@H]12`, the TGI in the test on HCC-2998 colon was over 100 µM; in the test with COLO 205 colon it was 47.9 µM; with HOP-92 NSCLC, 31.2 µM; in the test with 786-0 renal it was 43.9 µM; in the test on T-47D breast, over 100 µM; in the test with A549 NSCLC, over 100 µM. In addition, the TGI with NCI/ADR-RES ovarian, in the test with EKVX NSCLC, with NCI-H23 lung, in the test with PC-3 prostate and in the test on HOP-62 NSCLC was over 100 µM throughout.
As to `Cc1ccc([N+](=O)[O-])cc1NC1=NCCO1`, the TGI with HCC-2998 colon, in the test on COLO 205 colon, with 786-0 renal, in the test on T-47D breast, with SF-268 CNS and with A549 NSCLC was over 100 µM each time. The TGI in the test with NCI/ADR-RES ovarian, in the test with EKVX NSCLC, in the test with NCI-H23 lung, in the test with PC-3 prostate and in the test with HOP-62 NSCLC was over 100 µM in each case.
As to `N#CCCC1C(C#N)C2(Cl)CC1(Cl)C(Cl)=C2Cl` (configuration not stated), the TGI in the test with HCC-2998 colon, with COLO 205 colon, with T-47D breast, with SF-268 CNS, in the test on A549 NSCLC and in the test on NCI/ADR-RES ovarian was over 10 µM each time. The TGI in the test on EKVX NSCLC, in the test with NCI-H23 lung, in the test with PC-3 prostate and in the test with HOP-62 NSCLC was over 10 µM throughout.
